From patent US20110306579A1, “METHODS OF NEUROPROTECTION USING NEUROPROTECTIVE STEROIDS AND A VITAMIN D” (EMORY UNIVERSITY, priority 2009, published 2011)

Columns and labels:
[1] = test system: E18 rat primary cortical neurons; assay: Glutamate-induced excitotoxic cell death (LDH release and MTT reduction assays); type: cell-based
Text: Lactate dehydrogenase (LDH) release and 3-(4,5-dimethylthiazol-2-yl)-2,5-diphenyltetrazolium bromide (MTT) reduction assays were used to measure cell death. NeuroPureTM E18 primary rat cortical cells were commercially procured (Catalogue # N200200, Genlantis, San Diego, Calif., USA) as micro-surgically dissected regions from day 18 embryonic Sprague-Dawley rat brain. The tissues were processed for culturing according to manufacturer specifications. Briefly, enzymatic pre-treatment of the tissue was done prior to mechanical dissociation by incubating the tissues in sterile NeuroPapain enzyme solution at 30° C. for 30 minutes. Following incubation, the cells were centrifuged and transferred to fresh plating medium, where they were then dissociated into isolated neurons using a P-1000 pipettor with a sterile 1 ml plastic tip (0.8-1.0 mm diameter opening). The cells were again centrifuged and seeded in multi-well plates pre-coated with poly-D-lysine (0.15 ml/cm^2, 50 μg/ml) and maintained at 37° C. in a humidified 5% CO2 atmosphere. All experiments were performed after 9-10 days in culture. Twenty-four hours before glutamate exposure, cultures were pre-treated with both PROG (Cat. #P3972; Sigma Aldrich, St. Louis, Mo., USA) and VDH(Cat. #D1530; Sigma) separately or in combination with VDH at various concentrations. Stock solutions of PROG and VDH were prepared in dimethylsulfoxide (DMSO; Cat. #D2650; […] Glutamate was diluted in phosphate-buffered saline (PBS, pH 7.4). All reagents were filter sterilized before being added to cultures. At Day 11, cortical neurons in fresh media were separated into five treatment groups: (i) control; (ii) 24 hour treatment with 0.5 μM glutamate (Sribnick E A, et al., (2004) J Neurosci Res 76: 688-696); ([…]) with subsequent exposure to glutamate for 24 hours; (iv) 24 hour pre-treatment with VDH (1, 5, 10, 20, 40, 80, 100 nM) with subsequent exposure to glutamate for 24 hours; (v) 24 hour pre-treatment with different combinations of PROG and […]: 20 μM+VDH: 1, 5, 10, 20, 40, 80, 100 nM) with subsequent exposure to glutamate for 24 hours. Two widely accepted assays (LDH release and MTT reduction assay) for the measurement of cell viability were used. These assays are considered very reliable and reproducible with high predictive validity and are widely used in various pharmacological studies ([…], et al., (2002) Endocrinology 143: 205-212.). The LDH assay was performed as follows. […] LDH activity was measured using a Cytotoxicity Detection Kit (Roche Molecular Biochemicals, Indianapolis, Ind., USA) and quantitated by measuring absorbance at 490 nm. Data were normalized against the amount of LDH activity released from vehicle-treated control cultures receiving no glutamate. Neuronal death was also assessed by MTT [3-(4,5-dimethylthiazol-2-yl)-2,5-diphenyltetrazolium bromide] assay, which is based on the cleavage of the tetrazolium ring of the pale yellow MTT into dark blue formazan crystals by mitochondrial dehydrogenase enzyme in viable cells. These blue formazan crystals accumulate within the cells due to their impermeability to cell membrane, and are then solubilized by adding DMSO. The intensity of blue colored formazan solution is directly proportional to the number of surviving cells. Concentrations were determined by photometric analysis. Briefly, 10 μl of MTT were added per well and incubated at 37° C. for 4 hours until purple precipitate was visible. DMSO (50 μl) was added to solubilize the crystals and the absorbance was read at 570 nm.

[2] = test system: moderate to severe TBI patients; conditions: cited from earlier work

## CC(=O)[C@H]1CCC2C3CCC4=CC(=O)CC[C@]4(C)C3CC[C@@]21C (some centres unmarked) [progesterone]
[1]; LDH and MTT assays
  best (most effective) concentration alone against glutamate-induced neuronal death: 20 µM
[1]; PROG at higher concentrations (10, 20, 40, and 80 μM), LDH and MTT assays, P<0.001
  glutamate-induced cell death compared to vehicle-only group: significant reduction
[1]; PROG at lower concentrations (0.01, 0.1, 1, 5 μM), 24 h pre-treatment, glutamate 0.5 μM 24 h
  glutamate-induced cell death compared to vehicle-only group: did not show any decrease in cell death
[2]; 3 days of intravenous treatment, 100 patients
  reduction of mortality: over 60%
[2]; 30 days post-injury
  functional outcomes: significantly improved functional outcomes
